Data published in patent US8802700B2 (Vertex Pharmaceuticals Incorporated, priority 2010, dated 2014).

What follows are compounds tested against T1, ΔF508-CFTR (Homo sapiens, UniProt P13569, DEL508-508) (assay: Membrane potential optical assay (FRET voltage-sensor dyes, VIPR), identification of potentiator compounds). Details: Table 3; assay not given.
T1 construct: expressed in transfected cells
Format: cell-based
Procedure, shortened: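 NIH3T3 mouse fibroblasts stably expressing ΔF508-CFTR, cultured 24 h at 27 °C, were loaded with FRET voltage dyes CC2-DMPE and DiSBAC2(3). Double-addition format: first addition of Cl⁻-free (gluconate) medium with or without compound; membrane-potential change read as fluorescence on VIPR II.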

T1 sequence (P13569 with tags, fused parts or gaps DEL508-508): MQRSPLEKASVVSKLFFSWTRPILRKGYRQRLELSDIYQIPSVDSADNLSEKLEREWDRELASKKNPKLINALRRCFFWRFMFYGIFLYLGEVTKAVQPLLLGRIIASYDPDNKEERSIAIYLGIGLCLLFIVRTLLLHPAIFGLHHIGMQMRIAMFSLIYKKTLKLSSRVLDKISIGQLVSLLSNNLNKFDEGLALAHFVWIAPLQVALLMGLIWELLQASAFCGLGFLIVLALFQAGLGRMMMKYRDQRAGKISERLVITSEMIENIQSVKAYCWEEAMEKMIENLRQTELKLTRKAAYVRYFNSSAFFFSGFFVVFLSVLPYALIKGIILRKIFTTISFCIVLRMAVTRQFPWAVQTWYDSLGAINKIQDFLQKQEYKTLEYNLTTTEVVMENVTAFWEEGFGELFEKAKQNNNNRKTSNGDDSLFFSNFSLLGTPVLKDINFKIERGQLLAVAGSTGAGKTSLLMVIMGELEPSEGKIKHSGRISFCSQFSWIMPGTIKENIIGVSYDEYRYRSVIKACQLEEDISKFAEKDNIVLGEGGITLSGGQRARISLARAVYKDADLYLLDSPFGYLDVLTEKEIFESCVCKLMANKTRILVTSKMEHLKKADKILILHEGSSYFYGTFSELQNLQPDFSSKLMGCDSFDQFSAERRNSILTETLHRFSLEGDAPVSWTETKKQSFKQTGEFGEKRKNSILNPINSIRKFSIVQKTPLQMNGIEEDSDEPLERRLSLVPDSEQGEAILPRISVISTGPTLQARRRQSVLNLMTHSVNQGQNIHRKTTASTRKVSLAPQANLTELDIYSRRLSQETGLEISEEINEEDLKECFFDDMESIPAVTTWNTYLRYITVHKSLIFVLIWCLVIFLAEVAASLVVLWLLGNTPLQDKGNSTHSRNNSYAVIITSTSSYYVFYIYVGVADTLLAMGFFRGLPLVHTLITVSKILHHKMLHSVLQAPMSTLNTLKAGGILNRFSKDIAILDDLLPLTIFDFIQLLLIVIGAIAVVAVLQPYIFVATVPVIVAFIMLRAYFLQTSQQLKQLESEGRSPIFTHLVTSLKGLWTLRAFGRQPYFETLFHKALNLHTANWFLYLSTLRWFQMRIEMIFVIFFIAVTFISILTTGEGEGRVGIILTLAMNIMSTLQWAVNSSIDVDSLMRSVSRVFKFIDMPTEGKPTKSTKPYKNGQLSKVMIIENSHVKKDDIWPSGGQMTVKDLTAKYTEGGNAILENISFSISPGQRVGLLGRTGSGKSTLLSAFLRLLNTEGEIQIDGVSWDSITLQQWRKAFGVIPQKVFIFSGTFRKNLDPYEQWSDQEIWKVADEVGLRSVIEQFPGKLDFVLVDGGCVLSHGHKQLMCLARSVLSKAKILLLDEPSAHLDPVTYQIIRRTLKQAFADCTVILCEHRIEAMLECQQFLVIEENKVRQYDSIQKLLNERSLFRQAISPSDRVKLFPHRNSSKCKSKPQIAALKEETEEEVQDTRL

EC50 [µM] | SMILES
< 10 | CCOC(=O)c1cc(NC(=O)c2c[nH]c3ccccc3c2=O)cc2[nH]ccc12 [Compound 145, 6-[(4-oxo-1H-quinolin-3-yl)carbonylamino]-1H-indole-4-carboxylic acid ethyl ester]
< 10 | O=C(Nc1ccccc1-c1ccc(Cl)cc1Cl)c1c[nH]c2ccccc2c1=O [Compound 139, N-[2-(2,4-dichlorophenyl)phenyl]-4-oxo-1H-quinoline-3-carboxamide]

Same assay, conditions: Table 3; assay not given; read-out: % Activity (% Efficacy, relative efficacy)

Emax [%] | SMILES
25 to 100 | COCCOC(=O)NCC(C)(C)c1ccc(NC(=O)c2c[nH]c3ccccc3c2=O)cc1 [Compound 28, [2-methyl-2-[4-[(4-oxo-1H-quinolin-3-yl)carbonylamino]phenyl]-propyl]aminoformic acid 2-methoxyethyl ester]
25 to 100 | CC(C)(C)c1cc(C(C)(C)C)c(NC(=O)c2c[nH]c3ccc(Br)cc3c2=O)cc1O [Compound 553, 6-bromo-N-(5-hydroxy-2,4-ditert-butyl-phenyl)-4-oxo-1H-quinoline-3-carboxamide]
25 to 100 | O=C(Nc1cccnc1Oc1ccccc1F)c1c[nH]c2ccccc2c1=O [Compound 435, N-[2-(2-fluorophenoxy)-3-pyridyl]-4-oxo-1H-quinoline-3-carboxamide]
25 to 100 | CC(C)c1ccc(NC(=O)c2c[nH]c3cccc(O)c3c2=O)cc1O [Compound 587, 5-hydroxy-N-(3-hydroxy-4-isopropyl-phenyl)-4-oxo-1H-quinoline-3-carboxamide]
25 to 100 | Cc1c[nH]c2cc(NC(=O)c3c[nH]c4ccccc4c3=O)ccc12 [Compound 113, N-(3-methyl-1H-indol-6-yl)-4-oxo-1H-quinoline-3-carboxamide]
25 to 100 | CCOC(=O)c1cc(NC(=O)c2c[nH]c3ccccc3c2=O)cc2[nH]ccc12 [Compound 145, 6-[(4-oxo-1H-quinolin-3-yl)carbonylamino]-1H-indole-4-carboxylic acid ethyl ester]
> 100 | CC(C)(C)c1ccc(O)cc1NC(=O)c1c[nH]c2ccccc2c1=O [Compound 662, N-(5-hydroxy-2-tert-butyl-phenyl)-4-oxo-1H-quinoline-3-carboxamide]
25 to 100 | CCc1ccc2ncc(C(=O)Nc3ccc4cc[nH]c4c3)c(O)c2c1 [Compound 67, 6-ethyl-4-hydroxy-N-(1H-indol-6-yl)quinoline-3-carboxamide]
25 to 100 | CC(C)(C)c1cc(C(C)(C)C)c(NC(=O)c2c[nH]c3ccc(S(=O)(=O)N4CCCC4)cc3c2=O)cc1O [Compound 255, N-(5-hydroxy-2,4-ditert-butyl-phenyl)-4-oxo-6-pyrrolidin-1-ylsulfonyl-1H-quinoline-3-carboxamide]
25 to 100 | Cc1cccc2[nH]cc(C(=O)Nc3ccc(N4CCC(C)(C)C4)cc3C(F)(F)F)c(=O)c12 [Compound 578, N-[4-(3,3-dimethylpyrrolidin-1-yl)-2-(trifluoromethyl)phenyl]-5-methyl-4-oxo-1H-quinoline-3-carboxamide]
25 to 100 | O=C(Nc1ccccc1-c1cccc(Cl)c1Cl)c1c[nH]c2ccccc2c1=O [Compound 171, N-[2-(2,3-dichlorophenyl)phenyl]-4-oxo-1H-quinoline-3-carboxamide]
25 to 100 | COc1ccc2[nH]cc(C(=O)Nc3cc(O)c(C4(C)CCCCC4)cc3F)c(=O)c2c1 [Compound 584, N-[2-fluoro-5-hydroxy-4-(1-methylcyclohexyl)-phenyl]-6-methoxy-4-oxo-1H-quinoline-3-carboxamide]
25 to 100 | O=C(Nc1cc2[nH]ccc2cc1F)c1c[nH]c2ccc(F)cc2c1=O [Compound 254, 6-fluoro-N-(5-fluoro-1H-indol-6-yl)-4-oxo-1H-quinoline-3-carboxamide]
25 to 100 | CC(C)(C)OC(=O)N1CCc2ccc(NC(=O)c3c[nH]c4ccccc4c3=O)cc2C1 [Compound 107, 7-[(4-oxo-1H-quinolin-3-yl)carbonylamino]-1,2,3,4-tetrahydroisoquinoline-2-carboxylic acid tert-butyl ester]
25 to 100 | O=C(Nc1ccccc1-c1ccc(Cl)cc1Cl)c1c[nH]c2ccccc2c1=O [Compound 139, N-[2-(2,4-dichlorophenyl)phenyl]-4-oxo-1H-quinoline-3-carboxamide]
< 25 | O=C(Nc1cnc2ccccc2c1)c1c[nH]c2ccccc2c1=O [Compound 75, 4-oxo-N-(3-quinolyl)-1H-quinoline-3-carboxamide]
25 to 100 | CN(C)[C@@H]1CCN(c2ccc(NC(=O)c3c[nH]c4ccccc4c3=O)c(C(F)(F)F)c2)C1 [Compound 534, (R)-N-(4-(3-(dimethylamino)pyrrolidin-1-yl)-2-(trifluoromethyl)phenyl)-4-oxo-1,4-dihydroquinoline-3-carboxamide]
25 to 100 | O=C(Nc1ccccc1-c1ccccc1F)c1c[nH]c2ccccc2c1=O [Compound 313, N-[2-(2-fluorophenyl)phenyl]-4-oxo-1H-quinoline-3-carboxamide]
25 to 100 | CC(C)(C)c1cc2cc[nH]c2cc1NC(=O)c1c[nH]c2cccc(O)c2c1=O [Compound 500, 5-hydroxy-4-oxo-N-(5-tert-butyl-1H-indol-6-yl)-1H-quinoline-3-carboxamide]
25 to 100 | CC(C)(C)c1cc(F)c(NC(=O)c2c[nH]c3ccccc3c2=O)cc1O [Compound 143, N-(2-fluoro-5-hydroxy-4-tert-butyl-phenyl)-4-oxo-1H-quinoline-3-carboxamide]
25 to 100 | CC(C)(C)OC(=O)NCc1cc(NC(=O)c2c[nH]c3ccccc3c2=O)ccc1C(C)(C)C [Compound 465, [5-[(4-oxo-1H-quinolin-3-yl)carbonylamino]-2-tert-butyl-phenyl]methylaminoformic acid tert-butyl ester]

Emax [%] | SMILES
25 to 100 | Nc1cc(NC(=O)c2c[nH]c3ccccc3c2=O)c(Cl)cc1Cl [Compound 242, N-(5-amino-2,4-dichloro-phenyl)-4-oxo-1H-quinoline-3-carboxamide]
< 25 | CC(C)(C)c1cc(C(C)(C)C)c(NC(=O)c2c[nH]c3c(C#N)cccc3c2=O)cc1O [Compound 505, 8-cyano-N-(5-hydroxy-2,4-ditert-butyl-phenyl)-4-oxo-1H-quinoline-3-carboxamide]
< 25 | O=C(Nc1ccc(C(F)(F)F)nc1)c1c[nH]c2ccccc2c1=O [Compound 197, 4-oxo-N-[6-(trifluoromethyl)-3-pyridyl]-1H-quinoline-3-carboxamide]
25 to 100 | O=C(Nc1ccc(CO)cc1)c1c[nH]c2ccccc2c1=O [Compound 209, N-[4-(hydroxymethyl)phenyl]-4-oxo-1H-quinoline-3-carboxamide]
25 to 100 | CCc1ccccc1NC(=O)c1c[nH]c2ccccc2c1=O [Compound 72, N-(2-ethylphenyl)-4-oxo-1H-quinoline-3-carboxamide]
25 to 100 | C[C@@H]1CCCN1c1ccc(NC(=O)c2c[nH]c3ccc(F)cc3c2=O)c(C(F)(F)F)c1 [Compound 684, (R)-6-fluoro-N-(4-(2-methylpyrrolidin-1-yl)-2-(trifluoromethyl)phenyl)-4-oxo-1,4-dihydroquinoline-3-carboxamide]
< 25 | O=C(Nc1ccc2c(c1)OCO2)c1c[nH]c2ccccc2c1=O [Compound 437, N-benzo[1,3]dioxol-5-yl-4-oxo-1H-quinoline-3-carboxamide]
< 25 | O=C(Nc1cccc2nsnc12)c1c[nH]c2ccccc2c1=O [Compound 54, 4-oxo-N-(8-thia-7,9-diazabicyclo[4.3.0]nona-2,4,6,9-tetraen-5-yl)-1H-quinoline-3-carboxamide]
25 to 100 | CC(C)(C)c1ccc(NC(=O)c2c[nH]c3ccc(F)cc3c2=O)cc1O [Compound 490, 6-fluoro-N-(3-hydroxy-4-tert-butyl-phenyl)-4-oxo-1H-quinoline-3-carboxamide]
< 25 | O=C(Nc1ccc2nc(-c3ccccc3)[nH]c2c1)c1c[nH]c2ccccc2c1=O [Compound 73, 4-oxo-N-(2-phenyl-3H-benzoimidazol-5-yl)-1H-quinoline-3-carboxamide]
< 25 | O=C(Nc1ccc2oc(-c3ccccc3)nc2c1)c1c[nH]c2ccccc2c1=O [Compound 376, 4-oxo-N-(2-phenylbenzooxazol-5-yl)-1H-quinoline-3-carboxamide]
25 to 100 | CC1(C)CCCN(c2ccc(NC(=O)c3c[nH]c4ccccc4c3=O)c(C(F)(F)F)c2)C1 [Compound 612, N-[4-(3,3-dimethyl-1-piperidyl)-2-(trifluoromethyl)phenyl]-4-oxo-1H-quinoline-3-carboxamide]
25 to 100 | C[C@H]1CCCN1c1ccc(NC(=O)c2c[nH]c3cccc(C(F)(F)F)c3c2=O)c(C(F)(F)F)c1 [Compound 669, (S)-N-(4-(2-methylpyrrolidin-1-yl)-2-(trifluoromethyl)phenyl)-4-oxo-5-(trifluoromethyl)-1,4-dihydroquinoline-3-carboxamide]
< 25 | CCOc1cccc2c(=O)c(C(=O)Nc3cc(O)c(C(C)(C)C)cc3F)c[nH]c12 [Compound 526, 8-ethoxy-N-(2-fluoro-5-hydroxy-4-tert-butyl-phenyl)-4-oxo-1H-quinoline-3-carboxamide]
25 to 100 | CCOC(=O)c1c(NC(=O)c2c[nH]c3ccccc3c2=O)ccc2cc[nH]c12 [Compound 412, 6-[(4-oxo-1H-quinolin-3-yl)carbonylamino]-1H-indole-7-carboxylic acid ethyl ester]
25 to 100 | O=C(Nc1ccc(N2CC[C@@H](O)C2)cc1C(F)(F)F)c1c[nH]c2ccccc2c1=O [Compound 705, (R)-N-(4-(3-hydroxypyrrolidin-1-yl)-2-(trifluoromethyl)phenyl)-4-oxo-1,4-dihydroquinoline-3-carboxamide]
25 to 100 | O=C(Nc1ccccc1N1CCCC1)c1c[nH]c2ccccc2c1=O [Compound 295, 4-oxo-N-(2-pyrrolidin-1-ylphenyl)-1H-quinoline-3-carboxamide]
25 to 100 | O=C(Nc1ccc(C(F)(F)F)c(O)c1)c1c[nH]c2ccccc2c1=O [Compound 506, N-[3-hydroxy-4-(trifluoromethyl)phenyl]-4-oxo-1H-quinoline-3-carboxamide]
25 to 100 | CCc1ccc(Cl)c(CC)c1NC(=O)c1c[nH]c2ccccc2c1=O [Compound 91, N-(3-chloro-2,6-diethyl-phenyl)-4-oxo-1H-quinoline-3-carboxamide]
25 to 100 | O=C(Nc1cc(Cl)ccc1F)c1c[nH]c2ccccc2c1=O [Compound 48, N-(5-chloro-2-fluoro-phenyl)-4-oxo-1H-quinoline-3-carboxamide]
